Molecules are shown by their SMILES.

13 compounds from patent publication US20230159527A1, “COMPOUNDS AS BCL-2 INHIBITORS” (Fochon Pharmaceuticals, Ltd., priority 2020, published 2023) can be followed below.

Assay [1] has as its system RS4;11 cells. Briefly: Cell proliferation assay, RS4;11 cells (MTS, 72 h). Format: cell-based. As to conditions: Homo sapiens, RS4;11 cell proliferation. On the procedure: MTS testing kit was purchased from Promega. The RPMI-1640, Fetal bovine serum and Penicillin-Streptomycin were purchased from Gibco. Dimethyl sulfoxide (DMSO) was purchased from Sigma.
To investigate whether a compound is able to inhibit the activity of Bcl-2 in cells, a mechanism-based assay using RS4;11 (ATCC® CRL-1873™) cell was developed. In this assay, inhibition of Bcl-2 was detected by the inhibition of RS4;11 cells proliferation. RS4;11 cells were cultured in culture flasks to 40-80% confluence in RPMI-1640 plus 10% fetal bovine serum. Cells were collected and plated onto 96-well plates at desired cell density (30000 cells/well). Plates were incubated overnight at 37° C., with 5% CO2 to adhere. Compounds were added to the plates, and the final compound concentrations were 10000, 3333, 1111, […], 41, 14, 4.6 and 1.5 nM. Plates plated with RS4;11 cells were placed at 37° C., with 5% CO2 for 72 h. 20 μl MTS/100 μl medium mixture solution were added to each well and incubate the plates for exactly 2 hours. The reaction was stopped by adding 25 μl 10% SDS per well. Measure absorbance at 490 nm and 650 nm (reference wavelength). IC50 was calculated using GraphPad Prism 5.0.

The subject of assay [2] is DoHH2 cells. Briefly: Cell proliferation assay, DoHH2 cells (MTS, 120 h). Format: cell-based. As to conditions: Homo sapiens, DOHH-2. In outline:
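DoHH2 cells in RPMI-1640 with 10% FBS were plated at 5000/well and rested 4 h. They were then exposed to compound at nine final concentrations (10000 to 1.5 nM) for 120 h at 37 °C. Viability was read by MTS (2 h, A490) and IC50 derived by curve fitting.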

The term IC50 denotes the concentration that gives 50% inhibition. Low values mean greater potency in that assay, high ones weaker potency in that assay. Take `O=C(NS(=O)(=O)c1cc([N+](=O)[O-])c2c(n1)OC[C@H](Cc1ccccn1)N2)c1ccc(N2CCC3(CC2)CC(N2CCC[C@H]2c2ccccc2C2CC2)C3)cc1Oc1cnc2[nH]ccc2c1` (single isomer, unassigned) [Example B-45, 2-((1H-pyrrolo[2,3-b]pyridin-5-yl)oxy)-4-(2-((R or S)-2-(2-cyclopropylphenyl)pyrrolidin-1-yl)-7-azaspiro[3.5]nonan-7-yl)-N-(((S)-8-nitro-2-(pyridin-2-ylmethyl)-2,3-dihydro-1H-pyrido [2,3-b][1,4]oxazin-6-yl)sulfonyl) benzamide]: the IC50 in assay [1] and in assay [2] was at most 1 nM each time.

Turning to `Cc1nc(NC[C@H]2CC[C@](C)(O)CC2)c([N+](=O)[O-])cc1S(=O)(=O)NC(=O)c1ccc(N2CCC3(CC2)CC(N2CCOC[C@H]2c2ccccc2C(C)C)C3)cc1Oc1cnc2[nH]ccc2c1` (single isomer, unassigned) [Example A-131, 2-((1H-pyrrolo[2,3-b]pyridin-5-yl)oxy)-N-((6-((((1r,4r)-4-hydroxy-4-methylcyclohexyl)methyl)amino)-2-methyl-5-nitropyridin-3-yl)sulfonyl)-4-(2-((R or S)-3-(2-isopropylphenyl)morpholino)-7-azaspiro[3.5]nonan-7-yl) benzamide], the IC50 in assay [1] and in assay [2] was at most 1 nM each time.

With `CC(C)c1ccccc1[C@@H]1CCCN1C1CC2(CCN(c3ccc(C(=O)NS(=O)(=O)c4cc([N+](=O)[O-])c5c(n4)OC[C@H]([C@H]4CC[C@](C)(O)CC4)N5)c(Oc4cnc5[nH]ccc5c4)c3)CC2)C1` (single isomer, unassigned) [Example B-34, 2-((1H-pyrrolo[2,3-b]pyridin-5-yl)oxy)-N-(((S)-2-((1r,4S)-4-hydroxy-4-methylcyclohexyl)-8-nitro-2,3-dihydro-1H-pyrido[2,3-b] [1,4]oxazin-6-yl)sulfonyl)-4-(2-((R or S)-2-(2-isopropylphenyl)pyrrolidin-1-yl)-7-azaspiro[3.5]nonan-7-yl)benzamide], the IC50 in assay [1] and in assay [2] was at most 1 nM each time.

Regarding `O=C(NS(=O)(=O)c1cnc(NCC2CCOCC2)c([N+](=O)[O-])c1)c1ccc(N2CCC3(CC2)CC(N2CCOC[C@H]2c2ccccc2C2CC2)C3)cc1Oc1cnc2[nH]ccc2c1` (single isomer, unassigned) [Example A-75, (R or S)-2-((1H-pyrrolo[2,3-b]pyridin-5-yl)oxy)-4-(2-(3-(2-cyclopropyl-phenyl)morpholino)-7-azaspiro[3.5]nonan-7-yl)-N-((5-nitro-6-(((tetra-hydro-2H-pyran-4-yl)methyl)amino)pyridin-3-yl)sulfonyl) benzamide], the IC50 in assay [1] and in assay [2] was at most 1 nM each time.

`CCc1ccccc1[C@H]1CCCN1C1CC2(CCN(c3ccc(C(=O)NS(=O)(=O)c4cnc(NCC5CCC(N=S6(=O)CCOCC6)CC5)c([N+](=O)[O-])c4)c(Oc4cnc5[nH]ccc5c4)c3)CC2)C1` (stereo partly drawn) [Example A-21b, (R)-2-((1H-pyrrolo[2,3-b]pyridin-5-yl)oxy)-4-(2-(2-(2-ethylphenyl)pyrrolidin-1-yl)-7-azaspiro[3.5]nonan-7-yl)-N-((5-nitro-6-(((4-((4-oxido-1,4λ^6-oxathian-4-ylidene)amino)cyclohexyl)methyl)amino)pyridin-3-yl)sulfonyl)benzamide]: the IC50 in assay [1] and in assay [2] was at most 1 nM in each case.

Turning to `CC(C)c1ccccc1[C@@H]1CCCN1C1CC2(CCN(c3ccc(C(=O)NS(=O)(=O)c4cc([N+](=O)[O-])c5c(n4)OC[C@H](Cc4ccccn4)N5)c(Oc4cnc5[nH]ccc5c4)c3)CC2)C1` (single isomer, unassigned) [Example B-38, 2-((1H-pyrrolo[2,3-b]pyridin-5-yl)oxy)-4-(2-((R or S)-2-(2-isopropylphenyl)pyrrolidin-1-yl)-7-azaspiro[3.5]nonan-7-yl)-N-(((S)-8-nitro-2-(pyridin-2-ylmethyl)-2,3-dihydro-1H-pyrido [2,3-b][1,4]oxazin-6-yl)sulfonyl) benzamide], the IC50 in assay [1] and in assay [2] was at most 1 nM in each case.

Turning to `CCS(=O)(CC)=NC1CCC(CNc2ncc(S(=O)(=O)NC(=O)c3ccc(N4CCC5(CC4)CC(N4CCC[C@@H]4c4ccccc4C(C)C)C5)cc3Oc3cnc4[nH]ccc4c3)cc2[N+](=O)[O-])CC1` (single isomer, unassigned) [Example A-13b, (R or S)-2-((1H-pyrrolo[2,3-b]pyridin-5-yl)oxy)-N-((6-(((4-((diethyl(oxo)-λ^6-sulfanylidene)amino)cyclohexyl)methyl)amino)-5-nitropyridin-3-yl)sulfonyl)-4-(2-(2-(2-isopropyl-phenyl)pyrrolidin-1-yl)-7-azaspiro [3.5]nonan-7-yl)benzamide], the IC50 in assay [1] and in assay [2] was at most 1 nM in each case.

As to `O=C(NS(=O)(=O)c1cnc(NCC2(F)CCOCC2)c([N+](=O)[O-])c1)c1ccc(N2CCC3(CC2)CC(N2CCC[C@H]2c2ccccc2C2CC2)C3)cc1Oc1cnc2[nH]ccc2c1` [Example A-32a, (S)-2-((1H-pyrrolo[2,3-b]pyridin-5-yl)oxy)-4-(2-(2-(2-cyclopropyl-phenyl)pyrrolidin-1-yl)-7-azaspiro [3.5]nonan-7-yl)-N-((6-(((4-fluoro-tetrahydro-2H-pyran-4-yl)methyl)amino)-5-nitropyridin-3-yl)sulfonyl)benzamide], the IC50 in assay [1] and in assay [2] was at most 1 nM throughout.

Regarding `O=C(NS(=O)(=O)c1cnc(NCC2C3COCC23)c([N+](=O)[O-])c1)c1ccc(N2CCC3(CC2)CC(N2CCC4C[C@@]42c2ccccc2C2CC2)C3)cc1Oc1cnc2[nH]ccc2c1` (single isomer, unassigned) [Example A-97a, 2-((1H-pyrrolo[2,3-b]pyridin-5-yl)oxy)-N-((6-(((3-oxabicyclo[3.1.0]hexan-6-yl)methyl)amino)-5-nitro-pyridin-3-yl)sulfonyl)-4-(2-((1R or 1S)-1-(2-cyclopropylphenyl)-2-aza-bicyclo[3.1.0]hexan-2-yl)-7-azaspiro [3.5]nonan-7-yl)benzamide], the IC50 in assay [1] and in assay [2] was at most 1 nM throughout.

As to `CC(C)c1ccccc1[C@H]1CCCN1C1CC2(CCN(c3ccc(C(=O)NS(=O)(=O)c4cnc(NCC5CCC(N=S(C)(C)=O)CC5)c([N+](=O)[O-])c4)c(Oc4cnc5[nH]ccc5c4)c3)CC2)C1` (stereo partly drawn) [Example A-10b, (R)-2-((1H-pyrrolo[2,3-b]pyridin-5-yl)oxy)-N-((6-(((4-((dimethyl (oxo)-λ^6-sulfanylidene)amino)cyclo-hexyl)methyl)amino)-5-nitropyridin-3-yl)sulfonyl)-4-(2-(2-(2-isopropyl-phenyl)pyrrolidin-1-yl)-7-azaspiro [3.5]nonan-7-yl)benzamide], the IC50 in assay [1] and in assay [2] was at most 1 nM each time.

Consider `O=C(NS(=O)(=O)c1cc([N+](=O)[O-])c2c(n1)OC[C@H](C1CC1)N2)c1ccc(N2CCC3(CC2)CC(N2CCCC2c2ccccc2C2CC2)C3)cc1Oc1cnc2[nH]ccc2c1` (single isomer, unassigned) [Example B-52, 2-((1H-pyrrolo[2,3-b]pyridin-5-yl)oxy)-N-(((S)-2-cyclopropyl-8-nitro-2,3-dihydro-1H-pyrido[2,3-b] [1,4]oxazin-6-yl)sulfonyl)-4-(2-((R or S)-2-(2-cyclopropylphenyl)pyrrolidin-1-yl)-7-azaspiro[3.5]nonan-7-yl)benzamide], for which the IC50 in assay [1] and in assay [2] was at most 1 nM throughout.

Turning to `CC(C)c1ccccc1[C@@H]1CCCN1C1CC2(CCN(c3ccc(C(=O)NS(=O)(=O)c4cnc(NCC5CCOCC5)c([N+](=O)[O-])c4)c(Oc4cnc5[nH]ccc5c4)c3)CC2)C1` [Example A-5a, (5)-2-((1H-pyrrolo[2,3-b]pyridin-5-yl)oxy)-4-(2-(2-(2-isopropyl-phenyl)pyrrolidin-1-yl)-7-azaspiro [3.5]nonan-7-yl)-N-((5-nitro-6-(((tetrahydro-2H-pyran-4-yl)methyl)amino)pyridin-3-yl)sulfonyl) benzamide], the IC50 in assay [1] and in assay [2] was at most 1 nM in each case.

For the compound `O=C(NS(=O)(=O)c1cnc(NCC2CCC(N=S3(=O)CCOCC3)CC2)c([N+](=O)[O-])c1)c1ccc(N2CCC3(CC2)CC(N2CCC[C@@H]2c2ccccc2C2CC2)C3)cc1Oc1cnc2[nH]ccc2c1` (stereo partly drawn) [Example A-23b, (R)-2-((1H-pyrrolo[2,3-b]pyridin-5-yl)oxy)-4-(2-(2-(2-cyclopropyl-phenyl)pyrrolidin-1-yl)-7-azaspiro [3.5]nonan-7-yl)-N-((5-nitro-6-(((4-((4-oxido-1,4λ^6-oxathian-4-ylidene)amino)cyclohexyl)methyl)amino)pyridin-3-yl)sulfonyl) benzamide], the IC50 in assay [1] and in assay [2] was at most 1 nM throughout.
